SMILES strings stand for the structures. Where a name gives a salt, the structure may show the parent alone.

This is an account of results in patent US20130267494A1, “1,4-OXAZEPANE DERIVATIVES” (priority 2010, published 2013).

Type in all cases: cell-based
Test [1] concerns the target T1, human dopamine transporter (Homo sapiens, UniProt Q01959).
T1 construct: expressed in transfected cells
Nature of the test: Inhibitory action on human dopamine transporter ([3H]-dopamine uptake in CHO cells). Particulars: compound 1 μM, relative to inhibitory activity of 100 μM Nomifensine as 100%; for inhibition at 1 µM: CHO, read-out: inhibitory rate (%). The method, boiled down: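 CHO-K1 cells stably expressing human dopamine transporter, exposed to compound at 10 μM or 1 μM in HEPES-buffered saline with 0.5% BSA. [3H]-dopamine uptake measured over 60 min by scintillation counting. Activity expressed relative to 100 μM nomifensine as 100%.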

Test [2] deals with T2, human serotonin transporter (Homo sapiens, UniProt P31645).
T2 construct: expressed in transfected cells
The experiment in a line: Inhibitory action on human serotonin transporter ([3H]-5-hydroxytryptamine uptake in CHO cells). Particulars: compound 1 μM, relative to inhibitory activity of 10 μM Paroxetine as 100%; for inhibition at 1 µM: CHO, read-out: inhibitory rate (%). In outline:
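CHO-K1 cells stably expressing human SERT, plated overnight, took up [3H]-5-HT (diluted to 200 nM before a 1:10 addition) for 20 min in HEPES-buffered saline with glucose and 0.5% BSA; radioactivity counted by scintillation. Compounds at 10 μM or 1 μM, activity expressed relative to 10 μM paroxetine set as 100%.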

Test [3] addresses T3, human norepinephrine transporter (Homo sapiens, UniProt P23975).
T3 construct: expressed in transfected cells
Nature of the test: Inhibitory action on human norepinephrine transporter ([3H]-norepinephrine uptake in CHO cells). Particulars: compound 1 μM, relative to inhibitory activity of 10 μM DMI as 100%; for inhibition at 1 µM: CHO, read-out: inhibitory rate (%). In outline:
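Stably transfected CHO-K1 cells plated overnight, then given test compound and [3H]-norepinephrine (20 nM final, from 200 nM) in HEPES-buffered saline with 0.5% BSA for 45 min. After PBS washes, retained radioactivity counted by scintillation. Inhibition at 10 μM or 1 μM compound expressed relative to 10 μM DMI as 100%.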

T3 sequence (P23975 whole entry): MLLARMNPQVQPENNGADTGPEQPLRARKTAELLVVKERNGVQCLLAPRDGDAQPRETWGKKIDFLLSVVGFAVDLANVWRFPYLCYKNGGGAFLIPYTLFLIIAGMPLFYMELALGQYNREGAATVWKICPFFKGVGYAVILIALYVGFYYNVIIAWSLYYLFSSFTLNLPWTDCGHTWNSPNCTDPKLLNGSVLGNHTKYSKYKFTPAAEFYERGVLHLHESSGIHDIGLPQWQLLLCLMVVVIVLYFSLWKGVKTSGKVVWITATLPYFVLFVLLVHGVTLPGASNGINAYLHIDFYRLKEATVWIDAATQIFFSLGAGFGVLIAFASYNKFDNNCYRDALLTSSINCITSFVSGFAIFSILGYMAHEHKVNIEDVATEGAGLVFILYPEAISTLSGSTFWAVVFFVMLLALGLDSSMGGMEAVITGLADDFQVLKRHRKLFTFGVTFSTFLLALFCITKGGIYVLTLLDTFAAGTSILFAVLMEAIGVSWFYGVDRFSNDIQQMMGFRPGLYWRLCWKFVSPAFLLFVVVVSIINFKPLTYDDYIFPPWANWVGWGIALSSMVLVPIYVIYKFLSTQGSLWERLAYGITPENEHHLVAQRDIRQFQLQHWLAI
T2 sequence (P31645 whole entry): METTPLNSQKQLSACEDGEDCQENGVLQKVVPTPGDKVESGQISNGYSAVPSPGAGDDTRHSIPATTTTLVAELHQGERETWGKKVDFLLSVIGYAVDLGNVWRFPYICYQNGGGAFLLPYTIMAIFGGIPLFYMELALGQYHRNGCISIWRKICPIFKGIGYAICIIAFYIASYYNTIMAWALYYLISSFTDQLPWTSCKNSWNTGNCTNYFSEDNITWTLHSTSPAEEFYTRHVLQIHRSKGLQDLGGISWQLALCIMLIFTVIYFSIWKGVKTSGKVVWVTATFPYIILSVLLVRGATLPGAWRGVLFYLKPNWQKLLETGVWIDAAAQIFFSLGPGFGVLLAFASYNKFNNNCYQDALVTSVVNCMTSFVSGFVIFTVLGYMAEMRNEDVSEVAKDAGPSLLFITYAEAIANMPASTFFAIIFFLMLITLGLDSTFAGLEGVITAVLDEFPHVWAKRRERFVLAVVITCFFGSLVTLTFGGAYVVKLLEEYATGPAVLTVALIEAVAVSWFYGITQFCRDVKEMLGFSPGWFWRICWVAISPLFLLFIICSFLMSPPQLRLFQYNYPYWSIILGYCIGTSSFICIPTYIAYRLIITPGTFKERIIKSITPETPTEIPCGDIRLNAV
T1 sequence (Q01959 whole entry): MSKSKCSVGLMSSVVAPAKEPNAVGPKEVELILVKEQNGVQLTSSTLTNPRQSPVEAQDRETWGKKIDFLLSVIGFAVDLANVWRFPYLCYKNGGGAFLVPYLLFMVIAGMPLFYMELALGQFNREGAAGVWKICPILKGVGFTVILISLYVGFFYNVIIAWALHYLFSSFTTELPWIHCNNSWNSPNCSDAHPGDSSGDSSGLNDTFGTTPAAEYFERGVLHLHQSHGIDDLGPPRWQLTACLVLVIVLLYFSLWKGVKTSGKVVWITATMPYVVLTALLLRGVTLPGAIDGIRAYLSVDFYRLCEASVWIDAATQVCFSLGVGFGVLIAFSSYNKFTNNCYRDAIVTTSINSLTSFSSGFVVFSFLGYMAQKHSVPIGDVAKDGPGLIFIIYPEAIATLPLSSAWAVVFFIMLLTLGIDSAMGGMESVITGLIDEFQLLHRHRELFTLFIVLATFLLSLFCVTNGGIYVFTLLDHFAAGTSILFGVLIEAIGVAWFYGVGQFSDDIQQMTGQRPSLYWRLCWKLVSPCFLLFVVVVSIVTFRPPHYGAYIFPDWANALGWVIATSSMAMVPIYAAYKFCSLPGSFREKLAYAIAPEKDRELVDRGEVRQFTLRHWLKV

Consider `O=c1[nH]nc(-c2cccn(C[C@@H]3CNCCO[C@H]3c3ccc(Cl)c(F)c3)c2=O)[nH]1` [Example 379, 1-{[(6S,7R)-7-(4-chloro-3-fluorophenyl)-1,4-oxazepan-6-yl]methyl}-3-(5-oxo-4,5-dihydro-1H-1,2,4-triazol-3-yl)pyridin-2(1H)-one monohydrochloride], for which the inhibition at 1 µM in test [1] was 64%; in test [2], 95%; in test [3], 102%.

On to `Cc1cc(C2OCCNCC2CO)ccc1Cl` (stereo not drawn) [Example 401, [(6R*,7S*)-7-(4-chloro-3-methylphenyl)-1,4-oxazepan-6-yl]methanol monohydrochloride (retention time short)], for which the results for the inhibition at 1 µM in test [1], in test [2] and in test [3] were 17%, 75% and 100%, respectively.

Take `Cc1cc(C2OCCNCC2CO)ccc1Cl` (stereo not drawn) [Example 402, [(6R*,7S*)-7-(4-chloro-3-methylphenyl)-1,4-oxazepan-6-yl]methanol monohydrochloride (retention time long)]: the entries for the “inhibitory rate (%)” value in test [1], in test [2] and in test [3] were 19%, 91% and 98%, respectively.

Take `Cc1ccc(C2OCCNCC2CO)cc1Cl` (stereo not drawn) [Example 405, [(6R*,7S*)-7-(3-chloro-4-methylphenyl)-1,4-oxazepan-6-yl]methanol monohydrochloride (retention time short)]: the inhibition at 1 µM in test [1] worked out at 12%; in test [2] it was 71%; in test [3], 100%.

With `Cc1ccc(C2OCCNCC2CO)cc1Cl` (stereo not drawn) [Example 406, [(6R*,7S*)-7-(3-chloro-4-methylphenyl)-1,4-oxazepan-6-yl]methanol monohydrochloride (retention time long)], the entries for the “inhibitory rate (%)” value in test [1], in test [2] and in test [3] were 22%, 82% and 98%, respectively.

As for `OCCOC[C@@]1(c2ccc(Cl)c(Cl)c2)CCNCCO1` [Example 416, 2-{[(7S)-7-(3,4-dichlorophenyl)-1,4-oxazepan-7-yl]methoxy}ethanol monohydrochloride], the inhibition at 1 µM in test [1] turned out to be 18%; in test [2], 85%; in test [3], 100%.

With `OCC(O)COC[C@@]1(c2ccc(Cl)c(Cl)c2)CCNCCO1` (stereo partly drawn) [Example 417, 3-{[(7S)-7-(3,4-dichlorophenyl)-1,4-oxazepan-7-yl]methoxy}propane-1,2-diol monohydrochloride], the inhibition at 1 µM in test [1] was 17%; in test [2] it was 92%; in test [3] it was 102%.

Regarding `CS(=O)(=O)NC[C@@]1(c2ccc(Cl)c(Cl)c2)CCNCCO1` [Example 432, N-{[(7S)-7-(3,4-dichlorophenyl)-1,4-oxazepan-7-yl]methyl}methanesulfonamide monohydrochloride], the results for the inhibition at 1 µM in test [1], in test [2] and in test [3] were 10%, 84% and 97%, respectively.

Consider `O=C1CNC(=O)N1C[C@]1(c2ccc(Cl)c(Cl)c2)CCNCCO1` [Example 438, 3-{[(7R)-7-(3,4-dichlorophenyl)-1,4-oxazepan-7-yl]methyl}imidazolidine-2,4-dione monohydrochloride], for which the inhibition at 1 µM in test [1] was 6%; in test [2] it was 81%; in test [3], 97%.

On to `O=C1CNC(=O)N1C[C@@]1(c2ccc(Cl)c(Cl)c2)CCNCCO1` [Example 439, 3-{[(7S)-7-(3,4-dichlorophenyl)-1,4-oxazepan-7-yl]methyl}imidazolidine-2,4-dione monohydrochloride], for which the inhibition at 1 µM in test [1] amounted to 7%; in test [2] it was 74%; in test [3] it was 98%.

On to `OCC1CNCCOC1c1ccc(Cl)c(F)c1` (stereo not drawn) [Example 440, [(6R*,7R*)-7-(4-chloro-3-fluorophenyl)-1,4-oxazepan-6-yl]methanol monohydrochloride (retention time short)], for which the inhibition at 1 µM in test [1] came to 10%; in test [3], 105%. Besides, the “inhibitory rate (%)” value in test [2] is 93%.

As for `OCC1CNCCOC1c1ccc(Cl)c(F)c1` (stereo not drawn) [Example 441, [(6R*,7R*)-7-(4-chloro-3-fluorophenyl)-1,4-oxazepan-6-yl]methanol monohydrochloride (retention time long)], the “inhibitory rate (%)” value in test [1] is 6%; in test [2] it was 51%; in test [3] it was 103%.

As to `OC[C@H]1OCCNC[C@H]1c1ccc(Cl)c(Cl)c1` [Example 447, [(6R,7S)-6-(3,4-dichlorophenyl)-1,4-oxazepan-7-yl]methanol monohydrochloride], the values for the inhibition at 1 µM in test [1], in test [2] and in test [3] were 51%, 42% and 99%, respectively.

Take `OC[C@@H]1OCCNC[C@@H]1c1ccc(Cl)c(Cl)c1` [Example 448, [(6S,7R)-6-(3,4-dichlorophenyl)-1,4-oxazepan-7-yl]methanol monohydrochloride]: the inhibition at 1 µM in test [1] is 7%; in test [2], 28%; in test [3] it was 88%.

For the molecule `CC(=O)NC[C@H]1OCCNC[C@H]1c1ccc(Cl)c(Cl)c1` [Example 453, N-{[(6R,7S)-6-(3,4-dichlorophenyl)-1,4-oxazepan-7-yl]methyl}acetamide monohydrochloride], the inhibition at 1 µM in test [1] amounted to 99%; in test [2] it was 41%; in test [3], 104%.

Regarding `CS(=O)(=O)NC[C@H]1OCCNC[C@H]1c1ccc(Cl)c(Cl)c1` [Example 467, N-{[(6R,7S)-6-(3,4-dichlorophenyl)-1,4-oxazepan-7-yl]methyl}methanesulfonamide monohydrochloride], the inhibition at 1 µM in test [1] was determined as 60%; in test [2], 38%; in test [3], 102%.

With `O=S(=O)(NC[C@H]1OCCNC[C@H]1c1ccc(Cl)c(Cl)c1)C(F)F` [Example 470, N-{[(6R,7S)-6-(3,4-dichloropheny))-1,4-oxazepan-7-yl]methyl}-1,1-difluoromethanesulfonamide monohydrochloride], the inhibition at 1 µM is 91% in test [1], 66% in test [2] and 103% in test [3].

Turning to `O=c1cccnn1C[C@H]1OCCNC[C@H]1c1ccc(Cl)c(Cl)c1` [Example 481, 2-{[(6R,7S)-6-(3,4-dichlorophenyl)-1,4-oxazepan-7-yl]methyl}pyridazin-3(2H)-one monohydrochloride], the values for the inhibition at 1 µM in test [1], in test [2] and in test [3] were 61%, 76% and 100%, respectively.

`OC[C@H]1OCCNC[C@@H]1c1ccc(Cl)c(Cl)c1` [Example 487, [(6S,7S)-6-(3,4-dichlorophenyl)-1,4-oxazepan-7-yl]methanol monohydrochloride]: the inhibition at 1 µM in test [1] amounted to 14%; in test [2], 15%; in test [3], 70%.

On to `OC[C@@H]1OCCNC[C@H]1c1ccc(Cl)c(Cl)c1` [Example 488, [(6R,7R)-6-(3,4-dichlorophenyl)-1,4-oxazepan-7-yl]methanol monohydrochloride], for which the inhibition at 1 µM was 37% in test [1], 61% in test [2] and 102% in test [3].
